Laboratory results reported in patent publication US9499551B2, “Substituted pyrrolo[2,3-b]pyridines for treating cancer or inflammatory diseases” (Confluence Life Sciences, Inc., priority 2014, dated 2016).

Experiments:
TAK1-TAB1 = molecular target: T1, TAK1-TAB1 (Homo sapiens, UniProt O43318); experiment: TAK1-TAB1 binding inhibitory potency (LanthaScreen competitive binding assay, kinase tracer-236); settings: 10 nM TAK1-TAB1, 100 nM kinase tracer-236; read-out: TAK1-Tab Inhibition IC50
T1 sequence (O43318 with tags, fused parts or gaps limits assumed): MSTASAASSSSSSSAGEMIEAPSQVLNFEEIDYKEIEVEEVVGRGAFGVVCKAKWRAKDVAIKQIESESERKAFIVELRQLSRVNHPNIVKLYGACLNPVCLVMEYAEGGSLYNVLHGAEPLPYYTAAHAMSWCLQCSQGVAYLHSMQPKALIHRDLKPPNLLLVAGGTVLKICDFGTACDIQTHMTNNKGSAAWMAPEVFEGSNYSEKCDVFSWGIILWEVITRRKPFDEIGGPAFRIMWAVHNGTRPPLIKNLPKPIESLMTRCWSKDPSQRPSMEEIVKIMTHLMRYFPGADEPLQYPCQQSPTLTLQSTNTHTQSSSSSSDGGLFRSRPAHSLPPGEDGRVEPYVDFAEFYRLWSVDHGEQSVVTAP
Summary of the method: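 Compounds were tested for TAK1-TAB1 binding in a 384-well LanthaScreen competitive FRET assay. TAK1-TAB1 (10 nM) and Eu-anti-his antibody (2 nM) were preincubated with compound for two hours before adding 100 nM Alexa Fluor 647 kinase tracer-236. The buffer was 20 mM HEPES pH 7.5, 10 mM MgCl2, 0.01% BSA, 0.0005% Tween-20 and 2% DMSO. IC50 came from 4-parameter logistic fits of emission ratio over an 11-point series from 20 μM to 0.34 nM.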

[1] = test system: IL-6 Production in Human Peripheral Blood Mononuclear Cells (PBMC); experiment: LPS stimulated IL-6 production in PBMC cells; type: cell-based; settings: read-out: IL-6 Production Inhibition IC50
Experimental: LPS Stimulated IL-6 Production in PBMC Cells:
Lipopolysaccharide (LPS) stimulated IL-6 Production in Human Peripheral Blood Mononuclear Cells (PBMC): The cellular efficacy of compound candidates is determined using peripheral blood mononuclear cells purified from human whole blood, based upon the methods of Burnette et al. (2009) Pharmacology, 84:42-60. PBMC produce a number of cytokines (IL6, IL8, IL1β and TNFα) in response to stimulation with LPS. To induce the production of inflammatory mediators, PBMC are plated at a final concentration of 2×10^5 cells/well in a 96 well flat bottom plate in DMEM medium supplemented with 10% fetal bovine serum, 100 units/ml penicillin and 100 μg/ml streptomycin (Gibco BRL Life Technologies). Cells are treated with or without inhibitors for 1-3 hrs then stimulated with 100 ng/ml LPS (serotype 011:B4, Sigma) for an additional 3 hrs at 37° C. with 5% CO2. The supernatants are removed and stored at −20° C. until they are to be assayed. The levels of inflammatory mediators are determined using commercial MSD cytokine kits (Meso Scale Discovery) as per the manufacturer's instructions. Standard curves are based on 7 steps of 4× serial dilutions, with a wide dynamic range of 10000 pg/ml to 2.4 pg/ml, and a blank. Lower limit of detection (LLOD) is calculated at the commonly used 3× the standard deviation of the blank.

Row | Structure (SMILES) | IC50 (TAK1-TAB1) [nM] | IC50 [1] [nM]
1 | NC(=O)/C=C/c1c[nH]c2ncc(-c3ccncc3)cc12 [Example 259, (E)-3-(5-(pyridin-4-yl)-1H-pyrrolo[2,3-b]pyridin-3-yl)acrylamide] | ≤ 1000 | ≤ 1000
2 | C[C@@H](O)C(=O)N1CCN(c2cnc3[nH]cc(/C=C/C(N)=O)c3c2)CC1 [Example 277, (R,E)-3-(5-(4-(2-hydroxypropanoyl)piperazin-1-yl)-1H-pyrrolo[2,3-b]pyridine-3-yl)acrylamide] | ≤ 1000 | > 1000
3 | CC1CCN(C(=O)c2ccc(-c3cnc4[nH]cc(/C=C/C(N)=O)c4c3)cn2)CC1 [Example 265, (E)-3-(5-(6-(4-methylpiperidine-1-carbonyl)pyridin-3-yl)-1H-pyrrolo[2,3-b]pyridin-3-yl)acrylamide] | ≤ 1000 | > 1000
4 | CSc1ncc(-c2cnc3[nH]cc(/C=C/C(N)=O)c3c2)cn1 [Example 287, (E)-3-(5-(2-(methylthio)pyrimidin-5-yl)-1H-pyrrolo[2,3-b]pyridin-3-yl)acrylamide] | ≤ 1000 | ≤ 1000
5 | NC(=O)/C=C/c1c[nH]c2ncc(Cc3ccc(F)cc3F)cc12 [Example 275, (E)-3-(5-(2,4-difluorobenzyl)-1H-pyrrolo[2,3-b]pyridin-3-yl)acrylamide] | ≤ 1000 | ≤ 1000
6 | CS(=O)(=O)c1ccc(-c2cnc3[nH]cc(/C=C/C(N)=O)c3c2)cc1 [Example 23, (E)-3-(5-(4-(methylsulfonyl)phenyl)-1H-pyrrolo[2,3-b]pyridin-3-yl)acrylamide] | ≤ 1000 | > 1000
7 | CC(C)Oc1ccnc2[nH]cc(/C=C/C(N)=O)c12 [Example 7, (E)-3-(4-Isopropoxy-1H-pyrrolo[2,3-b]pyridin-3-yl)acrylamide] | ≤ 1000 | ≤ 1000
8 | CC(O)c1cncc(-c2cnc3[nH]cc(/C=C/C(N)=O)c3c2)c1 (centres unmarked) [Example 299, (E)-3-(5-(5-(1-hydroxyethyl)pyridin-3-yl)-1H-pyrrolo[2,3-b]pyridin-3-yl)acrylamide] | ≤ 1000 | > 1000
9 | NC(=O)/C=C/c1c[nH]c2ncc(N3CC(NC(=O)c4ccccc4)C3)cc12 [Example 298, (E)-N-(1-(3-(3-amino-3-oxoprop-1-en-1-yl)-1H-pyrrolo[2,3-b]pyridin-5-yl)azetidin-3-yl)benzamide] | ≤ 1000 | ≤ 1000
10 | NC(=O)/C=C/c1c[nH]c2ncc(N3CCN(C(=O)C4CCCC4)CC3)cc12 [Example 278, (E)-3-(5-(4-(cyclopentane-carbonyl)piperazin-1-yl)-1H-pyrrolo[2,3-b]pyridin-3-yl)acrylamide] | ≤ 1000 | > 1000
11 | NC(=O)/C=C/c1c[nH]c2ncc(N3CCN(c4ccccc4)CC3)cc12 [Example 297, (E)-3-(5-(4-phenylpiperazin-1-yl)-1H-pyrrolo[2,3-b]pyridin-3-yl)acrylamide] | ≤ 1000 | ≤ 1000
12 | Cn1cc(-c2cnc3[nH]cc(/C=C/C(N)=O)c3c2)cn1 [Example 5, (E)-3-(5-(1-Methyl-1H-pyrazol-4-yl)-1H-pyrrolo[2,3-b]pyridin-3-yl)acrylamide] | ≤ 1000 | ≤ 1000

The next lines start with results.

Row | IC50 (TAK1-TAB1) [nM] | Structure (SMILES) | IC50 [1] [nM]
13 | ≤ 1000 | NC(=O)/C=C/c1c[nH]c2ncc(-c3cc(C(F)(F)F)cc(C(F)(F)F)c3)cc12 [Example 253, (E)-3-(5-(3,5-bis(trifluoromethyl)phenyl)-1H pyrrolo[2,3-b]pyridin-3-yl)acrylamide] | ≤ 1000
14 | ≤ 1000 | COc1cc(OC2CCCC2)cc(-c2cnc3[nH]cc(/C=C/C(N)=O)c3c2)c1 [Example 257, (E)-3-(5-(3-(cyclopentyloxy)-5-methoxyphenyl)-1H-pyrrolo[2,3-b]pyridin-3-yl)acrylamide] | ≤ 1000
15 | ≤ 1000 | CC(=O)/C=C/c1c[nH]c2ncc(-c3cccnc3)cc12 [Example 251, (E)-4-(5-(pyridin-3-yl)-1H-pyrrolo[2,3-b]pyridin-3-yl)but-3-en-2-one] | > 1000
16 | ≤ 1000 | CC(C)C(=O)NC1CN(c2cnc3[nH]cc(/C=C/C(N)=O)c3c2)C1 [Example 283, (E)-3-(5-(3-isobuty-ramidoazetidin-1-yl)-1H-pyrrolo[2,3-b]pyridin-3-yl)acrylamide] | ≤ 1000
17 | ≤ 1000 | CN1CCC(NC(=O)c2ccc(-c3cnc4[nH]cc(/C=C/C(N)=O)c4c3)nc2)CC1 [Example 296, (E)-6-(3-(3-amino-3-oxoprop-1-en-1-yl)-1H-pyrrolo[2,3-b]pyridin-5-yl)-N-(1-methylpiperidin-4-yl)nicotinamide] | > 1000
18 | ≤ 1000 | CC(=O)O[C@@H](C)CNC(=O)c1ccc(-c2cnc3[nH]cc(/C=C/C(N)=O)c3c2)cc1 [Example 293, (S,E)-1-(4-(3-(3-amino-3-oxoprop-1-en-1-yl)-1H-pyrrolo[2,3-b]pyridin-5-yl)benzamido) propan-2-yl acetate] | > 1000
19 | ≤ 1000 | NC(=O)/C=C/c1c[nH]c2ncc(-c3ccccc3)cc12 [Example 1, 3-(5-Phenyl-1H-pyrrolo[2,3-b]pyridin-3-yl)-acrylamide] | ≤ 1000
